# EP0217101A1, “Substituted diphenyl ethers, process for their preparation and their use as herbicides” (HOECHST AKTIENGESELLSCHAFT, priority 1985, dated 1987)
# How the values were obtained:
# Format in all cases: in vivo
# Avena sativa [1] = assay: Weed control pre-emergence (greenhouse pot test); settings: pre-emergence, 2,5 kg a.i./ha, visual rating after 3-4 weeks
# Source text: (§1) Die Schädigung der Unkrautpflanzen bzw. die Kulturpflanzenverträglichkeit wurde gemäß einem Schlüssel bonitiert, in dem die Wirksamkeit durch Wertzahlen von 0 - 5 ausgedrückt ist. Dabei bedeutet:
# (§2) Samen bzw. Rhizomstücke von mono- und dikotylen Unkrautpflanzen wurden in Plasstiktöpfen (0 = 9 cm) in sandiger Lehmerde ausgelegt und mit Erde abgedeckt. Die in Form von benetzbaren Pulvern oder Emulsionskonzentraten formulierten erfindungsgemäßen Verbindungen wurden dann als wäßrige Suspensionen bzw. Emulsionen mit einer Wasseraufwandmenge von umgerechnet 600-800 1/ha in unterschiedlichen Dosierungen auf die Oberfläche der Abdeckerde appliziert. Nach der Behandlung wurden die Töpfe im Gewächshaus aufgestellt und unter guten Wachstumsbedingungen für die Unkrautpflanzen gehalten (Temperatur 23 plus/minus 1 Grad Celsius, relative Luftfeuchte 60-80 %).
# (§3) Die optische Bonitur der Pflanzen- bzw. Auflaufschäden erfolgte nach dem Auflaufen der Versuchspflanzen nach einer Versuchszeit von 3-4 Wochen im Vergleich zu unbehandelten Kontrollen.
# Chrysanthemum segetum [2] = assay: Weed control pre-emergence (greenhouse pot test); settings: pre-emergence, 2,5 kg a.i./ha, visual rating after 3-4 weeks
# Source text: as §1, §2, §3
# Sinapis arvensis [3] = assay: Weed control pre-emergence (greenhouse pot test); settings: pre-emergence, 2,5 kg a.i./ha, visual rating after 3-4 weeks
# Source text: as §1, §2, §3
# Echinochloa crus-galli [4] = assay: Weed control pre-emergence (greenhouse pot test); settings: pre-emergence, 2,5 kg a.i./ha, visual rating after 3-4 weeks
# Source text: as §1, §2, §3
# Stellaria media [5] = assay: Weed control pre-emergence (greenhouse pot test); settings: pre-emergence, 2,5 kg a.i./ha, visual rating after 3-4 weeks
# Source text: as §1, §2, §3
# Avena sativa [6] = assay: Weed control post-emergence (greenhouse pot test); settings: post-emergence (three-leaf stage), 2,5 kg a.i./ha, visual rating after ca. 3-4 weeks
# Source text: as §1
# (§4) Samen bzw. Rhizomstüeke von mono- und dikotylen Unkräutern wurden in Plasstiktöpfen (φ= 9 cm) in sandigem Lehmboden ausgelegt, mit Erde abgedeckt und im Gewächshaus unter guten Wachstumsbedingungen angezogen. Drei Wochen nach der Aussaat wurden die Versuchspflanzen im Dreiblattstadium behandelt. Die als Spritzpulver bzw. als Eτulsionskonzentrate formulierten erfindungsgemäßen Verbindungen wurden in verschiedenen Dosierungen mit einer Wasseraufwandmenge von umgerechnet 600-800 l/ha auf die grünen Pflanzenteile gesprüht und nach ca. 3-4 Wochen Standzeit der Versuchspflanzen im Gewächshaus unter optimalen Wachstumsbedingungen (Temperatur 23°C +/- 1°C, relative Luftfeuchte 60-80 %) die Wirkung der Präparate optisch im Vergleich zu unbehandelten Kontrollen bonitiert.
# Chrysanthemum segetum [7] = assay: Weed control post-emergence (greenhouse pot test); settings: post-emergence (three-leaf stage), 2,5 kg a.i./ha, visual rating after ca. 3-4 weeks
# Source text: as §1, §4
# Sinapis arvensis [8] = assay: Weed control post-emergence (greenhouse pot test); settings: post-emergence (three-leaf stage), 2,5 kg a.i./ha, visual rating after ca. 3-4 weeks
# Source text: as §1, §4
# Echinochloa crus-galli [9] = assay: Weed control post-emergence (greenhouse pot test); settings: post-emergence (three-leaf stage), 2,5 kg a.i./ha, visual rating after ca. 3-4 weeks
# Source text: as §1, §4
# Stellaria media [10] = assay: Weed control post-emergence (greenhouse pot test); settings: post-emergence (three-leaf stage), 2,5 kg a.i./ha, visual rating after ca. 3-4 weeks
# Source text: as §1, §4
Structure (SMILES),Herbizide Wirkung im Vorauflauf AS (Avena sativa [1]),Herbizide Wirkung im Vorauflauf CRS (Chrysanthemum segetum [2]),Herbizide Wirkung im Vorauflauf SIA (Sinapis arvensis [3]),Herbizide Wirkung im Vorauflauf ECG (Echinochloa crus-galli [4]),Herbizide Wirkung im Vorauflauf STM (Stellaria media [5]),Herbizide Wirkung im Nachauflauf AS (Avena sativa [6]),Herbizide Wirkung im Nachauflauf CRS (Chrysanthemum segetum [7]),Herbizide Wirkung im Nachauflauf SIA (Sinapis arvensis [8]),Herbizide Wirkung im Nachauflauf ECG (Echinochloa crus-galli [9]),Herbizide Wirkung im Nachauflauf STM (Stellaria media [10])
"CCOC(OC(=O)c1cc(Oc2ccc(C(F)(F)F)cc2Cl)ccc1[N+](=O)[O-])C(Cl)(Cl)Cl (centres unmarked) [compound 5, 5-(2-Chlor-4-trifluormethylahenoxy)-2-nitrobenzoesäure-2,2,2-trichlor-1-ethoxyethylester]",2 (= 20 - 40 % Wirkung bzw. Schaden),5 (= 80 - 100 % Wirkung bzw. Schaden),5 (= 80 - 100 % Wirkung bzw. Schaden),3 (= 40 - 60 % Wirkung bzw. Schaden),2 (= 20 - 40 % Wirkung bzw. Schaden),1 (= 0 - 20 % Wirkung bzw. Schaden),4 (= 60 - 80 % Wirkung bzw. Schaden),5 (= 80 - 100 % Wirkung bzw. Schaden),2 (= 20 - 40 % Wirkung bzw. Schaden),2 (= 20 - 40 % Wirkung bzw. Schaden)
COC(=O)CC(OC(OC(=O)c1cc(Oc2ccc(C(F)(F)F)cc2Cl)ccc1[N+](=O)[O-])C(Cl)(Cl)Cl)C(=O)OC (centres unmarked) [compound 31],5 (= 80 - 100 % Wirkung bzw. Schaden),5 (= 80 - 100 % Wirkung bzw. Schaden),5 (= 80 - 100 % Wirkung bzw. Schaden),5 (= 80 - 100 % Wirkung bzw. Schaden),2 (= 20 - 40 % Wirkung bzw. Schaden),4 (= 60 - 80 % Wirkung bzw. Schaden),5 (= 80 - 100 % Wirkung bzw. Schaden),5 (= 80 - 100 % Wirkung bzw. Schaden),3 (= 40 - 60 % Wirkung bzw. Schaden),5 (= 80 - 100 % Wirkung bzw. Schaden)
